Patent US20130005698A1, “PHARMACEUTICAL FOR PREVENTING OR TREATING AN INNER EAR DISORDER” (University of Tsukuba, priority 2010, published 2013)

Assays:
[1] = test system: high-level noise exposure mice; assay: Evaluation of inner ear disorders in high-level noise exposure mice models (ABR threshold, cochlear hair cell loss); assay type: in vivo, B6 mice; settings: for effect on increase of the auditory brainstem response (ABR) threshold caused by exposure to high-level noise: one week and two weeks after exposure
Experimental: The test was carried out using high-level noise exposure mice. […] The auditory brainstem response (ABR) threshold was measured immediately before the exposure to high-level noise (initial value). At 1 week and 2 weeks after the exposure for 4 hours, the ABR was measured. For the prevention test, after measuring the ABR threshold at 2 weeks after, the inner ears were excised and fixed so as to allow pathological assessment of the loss of two types of hair cells, or inner and outer hair cells within the cochlea. The pathological assessment of the hair cell loss was carried out on the inner hair cells (one line of inner hair cells is represented by IHC) and outer hair cells (three lines of outer hair cells are represented by OHC 1, 2, and 3 from the inside to outside). The verification was carried out by analysis of variance (Fisher's test as post-hoc test). The mice were divided into two groups: a group exposed to high-level noise (control group, n=10), and a group exposed to high-level noise and administrated with fidarestat at a dose of 32 mg/kg/day (fidarestat-administrated group, n=10). The ABR and pathological assessment were carried out in 10 and 5 mice of each group, respectively. Fidarestat was administered mixed with the feed during the period from two days before to two weeks after the exposure to high-level noise. The mice were divided into five groups: a group exposed to high-level noise (control group, n=6), two group exposed to high-level noise and administrated with fidarestat at doses of 8 mg/kg/day or 32 mg/kg/day (fidarestat-administrated groups, n=6), a group exposed to high-level noise, and administrated with prednisolone at a dose of 1 mg/kg/day (prednisolone-administrated group, n=6), and a group exposed to high-level noise, and administrated of combination with prednisolone at a dose of 1 mg/kg/day and fidarestat at a dose of 32 mg/kg/day (combination use group, n=6). The ABR was carried out in 6 mice of each group. Fidarestat was administered mixed with the feed during the period immediately after to two weeks after the exposure to high-level noise. Prednisolone was orally administered immediately after the exposure to high-level noise.

[2] = test system: outer hair cells of the organ of Corti; assay: Gentamicin-induced loss of outer hair cells model (cultured organ of Corti); assay type: cell-based, SD rats; settings: 48 hours culture; for loss rate of gentamicin-induced outer hair cells loss: control 50%
Experimental: After excision of the cochlea from SD rats of 3-5 days old, lateral walls were removed, and then the basal turn of the organ of Corti was extracted. The organ of Corti was incubated overnight, and then cultured in culture solutions containing gentamicin ([…]) and fidarestat at different concentrations (0, 0.05, 0.1, 0.2, 0.5, 1, and 2 μM) for 48 hours. After culturing, the organ of corti was fixed with 4% paraformaldehyde. The culture solution was a Dulbecco's modified eagles medium (DMEM solution) containing 10% fetal bovine serum, HEPES ([…]), and penicillin G ([…]), and the organ was cultured at 37° C., 5% CO2, at a humidity of 95%.

NC(=O)[C@@H]1C[C@]2(NC(=O)NC2=O)c2cc(F)ccc2O1 [fidarestat, (2S,4S)-6-fluoro-2′,5′-dioxospiro[chroman-4,4′-imidazolidine]-2-carboxamide]
therapeutic effect on ABR threshold increase compared to prednisolone-administrated group ([1]; fidarestat 32 mg/kg/day vs prednisolone 1 mg/kg/day): equivalent effect
effect on increase of the loss rate of cochlear outer hair cells ([1]; prophylactic 32 mg/kg/day, two weeks after exposure to high-level noise): significantly inhibited
effect on increase of the auditory brainstem response (ABR) threshold caused by exposure to high-level noise ([1]; prophylactic administration, 32 mg/kg/day mixed with feed from two days before to two weeks after exposure): significantly inhibited
effect on increase of the auditory brainstem response (ABR) threshold caused by exposure to high-level noise ([1]; therapeutic administration, mixed with feed from immediately after to two weeks after exposure): significantly inhibited
loss rate of gentamicin-induced outer hair cells loss ([2]; fidarestat 0.1 μM): significantly reduced
outer hair cells survival ([2]; fidarestat 0.5 μM or more): 75%
loss rate of gentamicin-induced outer hair cells loss ([2]; fidarestat 0.5 μM or more): 25%
